Tests used:
D(2) dopamine receptor = D(2) dopamine receptor (Rattus norvegicus, UniProt P61169); experiment: Inhibition of [3H]spiperone binding to Dopamine receptor D2 from rat striatal membranes; format: cell membranes, Membrane
Mus musculus = organism: Mus musculus; experiment: Inhibition of methyl phenidate induced stereotyped gnawing in mice; format: functional
[1] = molecular target: Serotonin 2 (5-HT2) receptor (Rattus norvegicus, UniProt P30994+P08909+P14842); experiment: Inhibition of [3H]spiperone binding to 5-hydroxytryptamine 2 receptor from rat cortical membranes; format: cell membranes, Membrane
Rattus norvegicus [2] = experiment: Percent reduction of systolic arterial blood pressure(SAP) in spontaneously hypertensive rat after 10 min at intraperitoneal administration of 5 mg/kg; format: functional
Rattus norvegicus [3] = experiment: Percent reduction of diastolic arterial blood pressure(DAP) in spontaneously hypertensive rat after 10 min at intraperitoneal administration of 5 mg/kg; format: functional
[4] = molecular target: T1, Adrenergic receptor alpha-1 (Rattus norvegicus, UniProt P15823+P23944+P43140); experiment: Inhibition of [3H]prazosin binding to alpha-1 adrenergic receptor from rat cortical membranes; format: cell membranes, Membrane
T1 sequence (P15823 whole entry): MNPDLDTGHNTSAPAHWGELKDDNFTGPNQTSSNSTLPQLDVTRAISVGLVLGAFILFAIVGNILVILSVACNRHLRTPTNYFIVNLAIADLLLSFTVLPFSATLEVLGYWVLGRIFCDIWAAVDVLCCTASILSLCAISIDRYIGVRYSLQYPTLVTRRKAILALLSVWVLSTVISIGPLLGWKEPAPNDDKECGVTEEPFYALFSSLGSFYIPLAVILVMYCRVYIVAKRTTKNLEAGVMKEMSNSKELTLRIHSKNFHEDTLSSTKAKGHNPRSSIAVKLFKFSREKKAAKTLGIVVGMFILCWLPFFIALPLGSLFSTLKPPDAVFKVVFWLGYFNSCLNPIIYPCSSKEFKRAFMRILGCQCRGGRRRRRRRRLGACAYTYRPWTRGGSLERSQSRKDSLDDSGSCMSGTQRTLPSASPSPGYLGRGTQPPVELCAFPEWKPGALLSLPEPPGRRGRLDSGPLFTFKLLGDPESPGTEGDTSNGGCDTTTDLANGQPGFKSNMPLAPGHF
T1 sequence (P23944 whole entry): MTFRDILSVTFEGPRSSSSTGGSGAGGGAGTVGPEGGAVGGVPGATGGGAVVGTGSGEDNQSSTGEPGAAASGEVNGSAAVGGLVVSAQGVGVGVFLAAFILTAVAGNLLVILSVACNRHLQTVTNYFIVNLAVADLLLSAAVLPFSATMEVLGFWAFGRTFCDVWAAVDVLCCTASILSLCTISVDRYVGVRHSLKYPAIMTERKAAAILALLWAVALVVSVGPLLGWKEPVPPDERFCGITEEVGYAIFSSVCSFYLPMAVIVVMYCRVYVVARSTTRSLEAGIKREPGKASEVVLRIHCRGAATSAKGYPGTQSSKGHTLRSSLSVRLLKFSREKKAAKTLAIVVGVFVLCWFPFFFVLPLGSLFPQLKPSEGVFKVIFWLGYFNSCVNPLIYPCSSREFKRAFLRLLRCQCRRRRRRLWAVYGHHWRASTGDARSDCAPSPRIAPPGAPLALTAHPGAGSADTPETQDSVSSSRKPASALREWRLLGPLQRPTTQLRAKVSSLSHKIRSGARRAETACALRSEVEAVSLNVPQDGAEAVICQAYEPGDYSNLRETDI
T1 sequence (P43140 whole entry): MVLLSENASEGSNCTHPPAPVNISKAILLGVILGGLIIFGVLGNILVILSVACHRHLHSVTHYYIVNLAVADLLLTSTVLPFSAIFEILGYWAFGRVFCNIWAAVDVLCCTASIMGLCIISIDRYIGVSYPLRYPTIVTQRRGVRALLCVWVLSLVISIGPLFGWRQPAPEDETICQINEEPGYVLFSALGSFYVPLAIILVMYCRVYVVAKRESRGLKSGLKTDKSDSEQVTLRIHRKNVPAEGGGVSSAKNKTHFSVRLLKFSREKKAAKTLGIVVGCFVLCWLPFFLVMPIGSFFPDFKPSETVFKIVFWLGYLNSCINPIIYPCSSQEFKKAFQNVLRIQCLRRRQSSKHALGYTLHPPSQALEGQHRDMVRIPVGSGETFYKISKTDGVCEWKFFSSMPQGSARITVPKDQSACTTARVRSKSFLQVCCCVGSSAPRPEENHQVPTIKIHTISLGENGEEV

Rattus norvegicus [5] = organism: Rattus norvegicus; experiment: Inhibition of L-5-HTP (L-5-hydroxytryptophan) induced head twitches in rat; format: functional
Rattus norvegicus [6] = experiment: Inhibition of phenylephrine induced pressor response in pithed rats (following i.v. administration of […]); format: functional; conditions: route intravenous
Rattus norvegicus [7] = organism: Rattus norvegicus; experiment: Ratio of phenylephrine ED50/ 5-HT ED50; format: functional
Rattus norvegicus [8] = experiment: Percent reduction of blood pressure in spontaneously hypertensive rat after 10 min at intraperitoneal administration of 5 mg/kg; format: functional
Rattus norvegicus [9] = experiment: Inhibition of 5-HT induced pressor response in pithed rats, after intravenous administration; format: functional
Rattus norvegicus [10] = experiment: Inhibition of 5-HT induced pressor response in pithed rats, after intravenous administration of 0.02 mg/kg; format: functional
Rattus norvegicus [11] = experiment: Inhibition of 5-HT induced pressor response in pithed rats, after intravenous administration, activity is expressed as ED50; format: functional
[12] = Rattus norvegicus, read-out: ED50

D(2) dopamine receptor, sequence (P61169 whole entry): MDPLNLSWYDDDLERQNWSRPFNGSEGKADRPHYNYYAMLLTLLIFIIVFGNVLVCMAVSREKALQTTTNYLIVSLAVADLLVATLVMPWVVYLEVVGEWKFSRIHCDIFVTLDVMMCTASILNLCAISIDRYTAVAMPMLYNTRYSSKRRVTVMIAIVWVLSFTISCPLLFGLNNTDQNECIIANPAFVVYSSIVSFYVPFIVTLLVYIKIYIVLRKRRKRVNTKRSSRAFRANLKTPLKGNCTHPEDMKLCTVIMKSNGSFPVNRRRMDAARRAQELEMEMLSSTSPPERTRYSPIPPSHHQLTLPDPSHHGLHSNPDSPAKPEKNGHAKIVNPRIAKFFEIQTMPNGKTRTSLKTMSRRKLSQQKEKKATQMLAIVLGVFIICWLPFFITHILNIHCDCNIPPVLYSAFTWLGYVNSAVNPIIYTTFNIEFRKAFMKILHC

Row | IC50 (D(2) dopamine receptor) [nM] | IC50 [1] [nM] | IC50 [4] [nM] | SMILES | ED50 (Mus musculus) [µmol/kg] | Reduction (Rattus norvegicus [2]) [%] | Increase (Rattus norvegicus [3]) [%] | ED50 (Rattus norvegicus [5]; [12]) [µmol/kg] | Change (Rattus norvegicus [6]) [%] | Ratio (Rattus norvegicus [7]) | Reduction (Rattus norvegicus [8]) [%] | ED50 (Rattus norvegicus [9]) [µmol/kg] | Change (Rattus norvegicus [10]) [%] | ED50 (Rattus norvegicus [11]) [µmol/kg] | ED50 (Rattus norvegicus [5]) [µmol/kg] | Increase (Rattus norvegicus [2]) [%] | Reduction (Rattus norvegicus [3]) [%]
1 | 35 | 4.8 | 28 | CC(C)N1CCN(CCN2CCN(C3CC(c4ccc(F)cc4)c4ccc(F)cc43)CC2)C1=O.Cl.Cl (stereo not given) | > 73 | -5 | 0 | – | – | – | – | – | – | – | – | – | –
2 | 60 | 3.4 | 5.5 | Cl.Cl.O=c1[nH]c2ccccc2c(=O)n1CCN1CCN(C2CC(c3ccc(F)cc3)c3ccccc32)CC1 (stereo not given) | > 70 | – | – | 4.4 | -42 | 7.7 | -22 | 0.1 | -35 | 0.77 | – | – | –
3 | 62000 | 5100 | – | O=C1NCCN1CCN1CCN(C2CCc3ccccc32)CC1 (stereo not given) | > 127 | – | 6 | – | – | – | – | – | – | – | > 8 | 5 | –
4 | – | 4.9 | – | Fc1ccc(C2CC(N3CCN(CCN4CCN=C4S)CC3)c3cc(F)ccc32)cc1 (stereo not given) | – | – | – | – | – | 370 | -10 | 0.01 | – | – | – | – | –
5 | – | 7.7 | 22 | CN1CCN(C2CC(c3ccc(F)cc3)c3ccc(F)cc32)CC1 (stereo not given) | 11 | – | – | 0.079 | -19 | – | -15 | – | -85 | – | – | – | –
6 | – | 130 | – | Cl.Cl.O=C1OCCN1CCN1CCN(C2CC(c3ccc(F)cc3)c3ccccc32)CC1 (stereo not given) | > 83 | -15 | – | – | – | – | – | – | – | – | – | – | -19
7 | 15000 | 250 | 1400 | COc1ccc(C2CC(N3CCN(CCN4CCNC4=O)CC3)c3ccccc32)cc1 (stereo not given) | > 95 | – | – | > 48 | 69 | – | 3 | – | -19 | – | – | – | –

Continued, compound first:

Row | SMILES | IC50 (D(2) dopamine receptor) [nM] | IC50 [1] [nM] | IC50 [4] [nM] | ED50 (Mus musculus) [µmol/kg] | Reduction (Rattus norvegicus [2]) [%] | Increase (Rattus norvegicus [3]) [%] | ED50 (Rattus norvegicus [5]; [12]) [µmol/kg] | Change (Rattus norvegicus [6]) [%] | Ratio (Rattus norvegicus [7]) | Reduction (Rattus norvegicus [8]) [%] | ED50 (Rattus norvegicus [9]) [µmol/kg] | Change (Rattus norvegicus [10]) [%] | ED50 (Rattus norvegicus [11]) [µmol/kg] | ED50 (Rattus norvegicus [5]) [µmol/kg] | Increase (Rattus norvegicus [2]) [%] | Reduction (Rattus norvegicus [3]) [%]
8 | CN1CCN(CCN2CCN([C@@H]3C[C@@H](c4ccc(F)cc4)c4ccc(F)cc43)CC2)C1=O | 38 | 10 | 11 | – | – | – | 0.023 | -29 | 550 | -32 | 0.0043 | – | 2.2 | – | – | –
9 | COc1cc2nc(N3CCN(C(=O)c4ccco4)CC3)nc(N)c2cc1OC [PRAZOSIN] | – | – | – | > 95 | – | – | 0.45 | -100 | – | -32 | > 12 | 0 | 0.0095 | – | – | –
10 | O=C(c1ccc(F)cc1)C1CCN(CCn2c(=O)[nH]c3ccccc3c2=O)CC1 [KETANSERIN] | 1800 | – | 15 | > 101 | – | – | 0.79 | -14 | – | -32 | 0.024 | -62 | 3.2 | – | – | –
11 | OCCN1CCN(C2CC(c3ccc(F)cc3)c3ccccc32)CC1 (stereo not given) | 680 | 64 | 62 | > 118 | – | – | 0.46 | -12 | 10 | -27 | 0.33 | -15 | 3.4 | – | – | –
12 | Fc1ccc(C2CC(N3CCNCC3)c3ccccc32)cc1 (stereo not given) | 1900 | 30 | 100 | > 108 | – | – | 2.5 | 7 | – | 10 | – | -13 | – | – | – | –
13 | Cl.Cl.O.O=C1OCCN1CCN1CCN(C2CC(c3ccc(F)cc3)c3ccc(F)cc32)CC1 (stereo not given) | – | 44 | – | – | – | – | – | 19 | 5.2 | -20 | – | -27 | 4.4 | – | – | –
14 | CN1CCN(CCN2CCN(C3CC(c4ccc(F)cc4)c4ccc(F)cc43)CC2)C1=O.Cl.Cl (stereo not given) | 260 | 3.3 | 11 | > 78 | – | – | 0.078 | – | 1300 | -11 | 0.01 | – | 13 | – | – | –
